# Values of other authors, collected in patent publication US10646532B2, “Method for preparing water extract of ashwagandha leaves which has enhanced anti-cancer activity utilizing cyclodextrin, and pharmaceutical composition containing ashwagandha leaves” (National Institute of Advanced Industrial Science and …, priority 2014, dated 2020).
# Tested on: cancer cells / normal cells
# Conditions: in vitro test, background art
smiles,measurement,value
CC1=C(C)C(=O)OC([C@@H](C)C2(O)CC[C@H]3[C@@H]4[C@@H]5O[C@@H]5C5(O)CC=CC(=O)[C@]5(C)[C@H]4CC[C@@]32C)C1 (stereo partly shown) [withanone],cytotoxicity to cancer cells versus normal cells,selective cytotoxicity to cancer cells
